Source: ChEMBL document CHEMBL1149997, “Anti-HIV activity of quassinoids” (Bioorg Med Chem Lett, 1996)

Assays:
[1] = tested on: Human immunodeficiency virus 1; assay: Inhibition of HIV-1 replication in H9 lymphocytic cells.; assay type: functional, organism-based; settings: Human immunodeficiency virus 1, H9
H9 [2] = assay: Cytotoxicity against H9 lymphocytic cells.; assay type: functional, cell-based; settings: Homo sapiens
[3] = Therapeutic index expressed as the ratio of IC50 to EC50.; settings: read-out: Therapeutic index
H9 [4] = assay: Compound was tested for inhibitory activity against HIV replication in H9 lymphocytic cells; Toxic at all concentrations; assay type: functional, cell-based, Homo sapiens
H9 [5] = assay: Compound was tested for cytotoxicity against H9 lymphocytic cells; Toxic at all concentrations; assay type: functional, cell-based, Homo sapiens
H9 [6] = assay: Compound was tested for inhibitory activity against HIV replication in H9 lymphocytic cells; No effect; assay type: functional, cell-based, Homo sapiens
[7] = Therapeutic index expressed as the ratio of IC50 to EC50; No effect

Row | SMILES | EC50 [1] | IC50 (H9 [2]) | selectivity ratio [3] | EC50 (H9 [4]) | IC50 (H9 [5]) | EC50 (H9 [6]) | Therapeutic index [7]
1 | CC(=O)O[C@@H]1C(=O)[C@H](C)[C@@H]2CC(=O)O[C@@H]3C[C@H]4[C@H](C)CC(O)C(=O)[C@]4(C)[C@@H]1[C@@]32C (some centres not stated) | 246 µM | > 246 µM | > 1 | – | – | – | –
2 | CC1=CC(=O)[C@@H](O)[C@@]2(C)C1C[C@H]1OC(=O)C[C@H]3[C@H](C)[C@H](O)C(=O)[C@@H]2[C@@]13CO (some centres not stated) | 10.6 µM | > 264 µM | > 25 | – | – | – | –
3 | C=C1[C@@H](O)[C@]2(O)OC[C@@]34[C@H]1[C@@H](OC(=O)C(C)(O)CC)C(=O)O[C@@H]3C[C@H]1C(C)=CC(=O)[C@@H](O)[C@]1(C)[C@@H]24 (some centres not stated) | – | – | – | Toxic at all concentrations | Toxic at all concentrations | – | –
4 | COC(=O)C(C)[C@@H]1CC(=O)O[C@@H]2C[C@H]3C(C)=CC(=O)[C@@H](O)[C@]3(C)[C@H]3C(=O)OC[C@]321 (some centres not stated) [AILANTINOL A] | 30 µM | > 246 µM | > 8.2 | – | – | – | –
5 | C[C@@H]1C[C@H](O)C(=O)[C@]2(C)[C@H]3[C@H](O)C(=O)[C@H](C)[C@@H]4CC(=O)O[C@H](C[C@@H]12)[C@]34C [AMAROLIDE] | 179 µM | > 275 µM | > 1.5 | – | – | – | –
6 | COC(=O)[C@@]12OC[C@]34[C@H]([C@@H](O)[C@@H]1O)[C@@]1(C)C=C(O[C@@H]5O[C@H](CO)[C@@H](O)[C@H](O)[C@H]5O)C(=O)[C@@H](C)[C@@H]1C[C@H]3OC(=O)[C@H](OC(=O)C=C(C)C)[C@@H]24 [BRUCEOSIDE A] | 29 µM | 29 µM | 1 | – | – | – | –
7 | COC(=O)[C@@]12OC[C@]34[C@H](OC(=O)C[C@@H]13)[C@H](OC(=O)C=C(C)C)[C@H]1C(C)=C(O[C@@H]3O[C@H](CO)[C@@H](O)[C@H](O)[C@H]3O)C(=O)C[C@]1(C)[C@H]4[C@@H](O)[C@@H]2O [BRUCEOSIDE C] | – | 44 µM | – | – | – | Not Active | Not Active
8 | CC(C)=CC(=O)O[C@H]1C(=O)O[C@@H]2C[C@H]3[C@H](C)C(=O)C(O[C@@H]4O[C@H](CO)[C@@H](O)[C@H](O)[C@H]4O)=C[C@]3(C)[C@H]3[C@@H](O)[C@H](O)[C@]4(C(=O)O)OC[C@]32[C@@H]14 [BRUCEOSIDE D] | – | 52 µM | – | – | – | Not Active | Not Active
9 | CC(C)CC(=O)O[C@H]1C(=O)O[C@@H]2C[C@H]3[C@H](C)C(=O)C(O[C@@H]4O[C@H](CO)[C@@H](O)[C@H](O)[C@H]4O)=C[C@]3(C)[C@H]3[C@@H](O)[C@H](O)[C@]4(C(=O)O)OC[C@]32[C@@H]14 [BRUCEOSIDE E] | 74 µM | 59 µM | 0.8 | – | – | – | –
10 | COC(=O)[C@]12OC[C@]34[C@H]([C@@H](O)[C@@H]1O)[C@@]1(C)C(=O)C(O[C@@H]5O[C@H](CO)[C@@H](O)[C@H](O)[C@H]5O)=C[C@@H](C)[C@@H]1C[C@H]3OC(=O)[C@H](OC(=O)/C=C(\C)C(C)(C)OC(C)=O)[C@@H]24 [Bruceantinoside C] | 46 µM | 26 µM | 0.6 | – | – | – | –
11 | COC(=O)[C@]12OC[C@]34[C@H]([C@@H](O)[C@@H]1O)[C@@]1(C)C=C(O[C@@H]5O[C@H](CO)[C@@H](O)[C@H](O)[C@H]5O)C(=O)[C@@H](C)[C@@H]1C[C@H]3OC(=O)[C@H](OC(=O)/C=C(\C)C(C)C)[C@@H]24 [Bruceantinoside-A] | – | 4 µM | – | – | – | Not Active | Not Active
12 | COC(=O)[C@]12OC[C@]34[C@H]([C@@H](O)[C@@H]1O)[C@@]1(C)CC(=O)C(O[C@@H]5O[C@H](CO)[C@@H](O)[C@H](O)[C@H]5O)=C(C)[C@@H]1C[C@H]3OC(=O)[C@H](OC(=O)C=C(C)C)[C@@H]24 [Bruceoside-B] | 3 µM | 3 µM | 1 | – | – | – | –
13 | CC(=O)OC(C)(C)/C(C)=C/C(=O)O[C@H]1C(=O)O[C@@H]2C[C@H]3[C@H](C)C(=O)C(O[C@@H]4O[C@H](CO)[C@@H](O)[C@H](O)[C@H]4O)=C[C@]3(C)[C@H]3[C@@H](O)[C@H](O)[C@@]4(C(=O)O)OC[C@]32[C@@H]14 [Bruceoside-F] | 112 µM | > 132 µM | > 1.2 | – | – | – | –
14 | CC1=CC(=O)[C@@H](O)[C@]2(C)[C@H]3[C@@]4(O)C(=O)OC[C@@]35[C@@H](C[C@@H]12)OC(=O)C[C@H]5[C@H]4C [SHINJUDILACTONE] | 43 µM | > 266 µM | > 6.2 | – | – | – | –
15 | C=C1[C@H](O)[C@]2(O)OC[C@]34[C@H]2[C@@]2(C)[C@H](O)[C@@H](O)C=C(C)[C@@H]2C[C@H]3OC(=O)C[C@@H]14 [SHINJULACTONE A] | 5 µM | 5 µM | 1 | – | – | – | –
16 | COC(=O)[C@]12OC[C@]34[C@H]([C@@H](O)[C@@H]1O)[C@@]1(C)C=C(O[C@@H]5O[C@H](CO)[C@@H](O)[C@H](O)[C@H]5O)C(=O)[C@@H](C)[C@@H]1C[C@H]3OC(=O)[C@H](OC(=O)/C=C(\C)C(C)(C)O)[C@@H]24 [YADANZIOSIDE C] | – | 55 µM | – | – | – | Not Active | Not Active
17 | COC(=O)[C@]12OC[C@]34[C@H]([C@@H](O)[C@@H]1O)[C@@]1(C)C=C(O[C@@H]5O[C@H](CO)[C@@H](O)[C@H](O)[C@H]5O)C(=O)[C@@H](C)[C@@H]1C[C@H]3OC(=O)[C@H](OC(C)=O)[C@@H]24 [YADANZIOSIDE F] | 109 µM | 156 µM | 1.4 | – | – | – | –
18 | COC(=O)[C@@]12OC[C@]34[C@H]([C@@H](O)[C@@H]1O)[C@@]1(C)C=C(O[C@@H]5O[C@H](CO)[C@@H](O)[C@H](O)[C@H]5O)C(=O)[C@@H](C)[C@@H]1C[C@H]3OC(=O)[C@H](OC(=O)c1ccccc1)[C@@H]24 [YADANZIOSIDE-M] | – | 7 µM | – | – | – | Not Active | Not Active
19 | COC(=O)[C@]12OC[C@]34[C@H]([C@@H](O)[C@@H]1O)[C@@]1(C)C=C(O[C@@H]5O[C@H](CO)[C@@H](O)[C@H](O)[C@H]5O)C(=O)[C@@H](C)[C@@H]1C[C@H]3OC(=O)[C@H](OC(=O)CC(C)C)[C@@H]24 [Yadanzioside A] | 110 µM | 146 µM | 1.3 | – | – | – | –
20 | COC(=O)[C@]12OC[C@]34[C@H]([C@@H](O)[C@@H]1O)[C@@]1(C)CC(=O)C(O[C@@H]5O[C@H](CO)[C@@H](O)[C@H](O)[C@H]5O)=C(C)[C@@H]1C[C@H]3OC(=O)[C@H](OC(=O)CC(C)C)[C@@H]24 [Yadanzioside B] | 5 µM | 4 µM | 0.8 | – | – | – | –
21 | COC(=O)[C@]12OC[C@]34[C@H]([C@@H](O)[C@@H]1O)[C@@]1(C)[C@H](O)[C@H](O[C@@H]5O[C@H](CO)[C@@H](O)[C@H](O)[C@H]5O)C=C(C)[C@@H]1C[C@H]3OC(=O)[C@H](OC(=O)C=C(C)C)[C@@H]24 [Yadanzioside E] | – | 29 µM | – | – | – | Not Active | Not Active
22 | COC(=O)[C@]12OC[C@]34[C@H]([C@@H](O)[C@@H]1O)[C@@]1(C)C=C(O[C@@H]5O[C@H](CO)[C@@H](O)[C@H](O)[C@H]5O)C(=O)[C@@H](C)[C@@H]1C[C@H]3OC(=O)[C@H](OC(=O)/C=C(\C)C(C)(C)OC(C)=O)[C@@H]24 [Yadanzioside G] | 23 µM | 37 µM | 1.6 | – | – | – | –
23 | COC(=O)[C@]12OC[C@]34[C@H]([C@@H](O)[C@@H]1O)[C@@]1(C)CC(=O)C(O[C@@H]5O[C@H](CO)[C@@H](O)[C@H](O)[C@H]5O)=C(C)[C@@H]1C[C@H]3OC(=O)[C@H](OC(=O)/C=C(\C)C(C)(C)O)[C@@H]24 [Yadanzioside L] | 5 µM | 10 µM | 2 | – | – | – | –
24 | COC(=O)[C@]12OC[C@]34[C@H]([C@@H](O)[C@@H]1O)[C@@]1(C)C(=O)C(O[C@@H]5O[C@H](CO)[C@@H](O)[C@H](O)[C@H]5O)=C[C@@H](C)[C@@H]1C[C@H]3OC(=O)[C@H](OC(=O)/C=C(\C)C(C)C)[C@@H]24 [Yadanzioside N] | – | 49 µM | – | – | – | Not Active | Not Active
25 | COC(=O)[C@]12OC[C@]34[C@H]([C@@H](O)[C@@H]1O)[C@@]1(C)CC(=O)C(O[C@@H]5O[C@H](CO)[C@@H](O)[C@H](O)[C@H]5O)=C(C)[C@@H]1C[C@H]3OC(=O)[C@H](OC(=O)/C=C(\C)C(C)C)[C@@H]24 [Yadanzioside P] | 18 µM | 18 µM | 1 | – | – | – | –
26 | Nc1ccn([C@H]2CC[C@@H](CO)O2)c(=O)n1 [ZALCITABINE] | 0.03 µM | 500 µM | 16700 | – | – | – | –
